As a reminder, the IC50 is the midpoint of a concentration-inhibition curve.

Read-outs that look alike come from different tables or passages of the source.

The values that follow come from US20210214375A1 (LUNDBECK LA JOLLA RESEARCH CENTER, INC., priority 2017, published 2021).

Test [1] deals with T1, MAGL (Homo sapiens, UniProt Q99685).
T1 construct: Proteomes (human prefrontal cortex or cell membrane fractions); from tissue
T1 sequence (Q99685 1-303): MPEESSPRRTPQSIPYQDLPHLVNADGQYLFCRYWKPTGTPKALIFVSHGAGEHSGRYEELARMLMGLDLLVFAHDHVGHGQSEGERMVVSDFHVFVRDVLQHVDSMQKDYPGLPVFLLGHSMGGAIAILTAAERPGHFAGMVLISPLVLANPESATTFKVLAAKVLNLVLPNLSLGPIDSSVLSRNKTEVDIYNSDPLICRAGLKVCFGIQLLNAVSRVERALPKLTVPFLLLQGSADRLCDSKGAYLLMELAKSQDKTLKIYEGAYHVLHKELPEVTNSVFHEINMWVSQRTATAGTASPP
In words: In vitro competitive activity-based protein profiling (gel-based, FP-Rh or HT-01 probe). Format: biochemical. The method in brief: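 Readout is SDS-PAGE of probe-labelled proteome after FP-Rh or HT-01 (1.0 μL, 50 μM stock) labelling for 30 min at room temperature. Beforehand, inhibitors at varying concentrations were preincubated 30 min at 37° C with human prefrontal cortex or cell membrane fractions at 1.0 mg/mL total protein.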

The target in test [2] is T2, MAGL (Mus musculus, UniProt O35678).
T2 construct: from tissue; host or cells: brain of wild-type C57Bl/6J mice
T2 sequence (O35678 1-303): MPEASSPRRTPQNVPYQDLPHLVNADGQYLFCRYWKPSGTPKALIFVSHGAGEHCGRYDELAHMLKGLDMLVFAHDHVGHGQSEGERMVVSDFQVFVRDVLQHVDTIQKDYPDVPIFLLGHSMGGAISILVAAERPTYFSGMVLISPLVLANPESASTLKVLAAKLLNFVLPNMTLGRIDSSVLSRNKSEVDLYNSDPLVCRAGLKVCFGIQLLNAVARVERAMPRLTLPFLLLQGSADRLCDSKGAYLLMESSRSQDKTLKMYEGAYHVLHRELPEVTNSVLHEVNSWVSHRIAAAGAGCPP
As to the kind of experiment: Mouse brain proteomes from inhibitor treated mice (oral gavage, brain proteomes analyzed 4 h after administration). Particulars: brain proteome 4 h after administration, read-out: % Inh 5 mg/kg MGLL (Mouse). Format: in vivo, mouse (C57Bl/6J). The method in brief:
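Wild-type C57Bl/6J mice dosed orally in polyethylene glycol vehicle; brains removed 4 h post-dose and brain proteomes prepared and analysed for MAGL and serine hydrolase activity by previously established methods.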

Another test addresses T3, MGLL (Mus musculus, UniProt O35678).
T3 construct: Brain; from tissue; host or cells: mouse brain proteome
T3 sequence (O35678 1-303): T2 sequence (O35678 1-303)
In words: In vitro competitive activity-based protein profiling, mouse brain proteome. Format: biochemical. The protocol:
[Worded in the source for another species; this species is reported under the same test.] (§1) Proteomes (human prefrontal cortex or cell membrane fractions) (50 μL, 1.0 mg/mL total protein concentration) were preincubated with varying concentrations of inhibitors at 37° C. After 30 min, FP—Rh or HT-01 (1.0 μL, 50 μM in DMSO) was added and the mixture was incubated for another 30 min at room temperature. Reactions were quenched with SDS loading buffer (15 μL-4×) and run on SDS-PAGE.

Another test concerns the target T4, ABHD6 (Mus musculus, UniProt Q8R2Y0).
T4 construct: Brain; from tissue; host or cells: mouse brain proteome
T4 sequence (Q8R2Y0 1-336): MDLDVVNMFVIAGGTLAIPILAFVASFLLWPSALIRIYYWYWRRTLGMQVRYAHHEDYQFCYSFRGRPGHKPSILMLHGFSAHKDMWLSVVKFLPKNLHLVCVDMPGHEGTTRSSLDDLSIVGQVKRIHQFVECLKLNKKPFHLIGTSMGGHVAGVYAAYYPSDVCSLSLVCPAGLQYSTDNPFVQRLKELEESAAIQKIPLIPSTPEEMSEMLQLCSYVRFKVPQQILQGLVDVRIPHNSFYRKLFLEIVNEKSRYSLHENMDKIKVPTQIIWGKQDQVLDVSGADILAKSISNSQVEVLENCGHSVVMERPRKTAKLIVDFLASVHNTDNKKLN
In words: In vitro competitive activity-based protein profiling, mouse brain proteome, ABHD6. Format: biochemical. Particulars: mouse. The protocol:
[Worded in the source for another target; this target is reported under the same test.] as §1

Setting [3] is: PC3 proteome, read-out: IC50 MGLL PC3 (Human).
Setting [4] is: PFC (prefrontal cortex) proteome, read-out: IC50 MGLL PFC (Human).

Regarding `O=C(O)CN1CCN(c2cc(C(F)(F)F)ccc2CN2CCCC23CCN(C(=O)OC(C(F)(F)F)C(F)(F)F)CC3)CC1` [Example 3, 2-(4-(2-((8-(((1,1,1,3,3,3-Hexafluoropropan-2-yl)oxy)carbonyl)-1,8-diazaspiro[4.5]decan-1-yl)methyl)-5-(trifluoromethyl)phenyl)piperazin-1-yl)acetic acid], the IC50 on MAGL [1] (setting [3]) is below 100 nM; at MAGL [1] (setting [4]), below 100 nM; on MGLL, below 100 nM; at ABHD6 it was above 1000 nM. In addition, at MAGL [1] (PFC (prefrontal cortex) proteome), the “% Inh MGLL PFC (Human, μM)” value is listed as “### (### is ≥ 75%)”. Besides, the inhibition at 5 mg/kg at MAGL [2] was at most 25%.

With `O=C(OC(C(F)(F)F)C(F)(F)F)N1CCC2(CCCN2Cc2cc(C(F)(F)F)cc(C3(C(=O)O)CCCC3)c2)CC1` [Example 8, 1-(3-((8-(((1,1,1,3,3,3-Hexafluoropropan-2-yl)oxy)carbonyl)-1,8-diazaspiro[4.5]decan-1-yl)methyl)-5-(trifluoromethyl)phenyl)cyclopentane-1-carboxylic acid], the IC50 was below 100 nM on MAGL [1] (setting [3]), below 100 nM at MAGL [1] (setting [4]), below 100 nM at MGLL and above 1000 nM on ABHD6. Besides, on MAGL [2], the inhibition at 5 mg/kg was at least 75%.

On to `O=C(O)C1CN(c2cc(C(F)(F)F)ccc2CN2CC3(CCN(C(=O)OC(C(F)(F)F)C(F)(F)F)CC3)C2)CCO1` (stereo not drawn) [Example 20, 4-(2-((7-(((1,1,1,3,3,3-Hexafluoropropan-2-yl)oxy)carbonyl)-2,7-diazaspiro[3.5]nonan-2-yl)methyl)-5-(trifluoromethyl)phenyl)morpholine-2-carboxylic acid], for which the IC50 was below 100 nM on MAGL [1] (setting [3]), below 100 nM at MAGL [1] (setting [4]), below 100 nM at MGLL and above 1000 nM on ABHD6. In addition, the inhibition at 5 mg/kg at MAGL [2] was at least 75%.

As to `O=C(O)C1CCN(c2cc(CN3CC4(CCN(C(=O)OC(C(F)(F)F)C(F)(F)F)CC4)C3)cc(C(F)(F)F)c2)CC1` [Example 99, 1-(3-((7-(((1,1,1,3,3,3-Hexafluoropropan-2-yl)oxy)carbonyl)-2,7-diazaspiro[3.5]nonan-2-yl)methyl)-5-(trifluoromethyl)phenyl)piperidine-4-carboxylic acid], the IC50 was below 100 nM at MAGL [1] (setting [3]), below 100 nM at MAGL [1] (setting [4]), below 100 nM at MGLL and 100 to 1000 nM at ABHD6. The inhibition at 5 mg/kg at MAGL [2] was 25 to 75%.

`CN(Cc1ccc(C(F)(F)F)cc1N1CCOC(C(=O)O)C1)C1(C)CCN(C(=O)OC(C(F)(F)F)C(F)(F)F)CC1` (stereo not drawn) [Example 108, 4-(2-(((1-(((1,1,1,3,3,3-Hexafluoropropan-2-yl)oxy)carbonyl)-4-methylpiperidin-4-yl)(methyl)amino)methyl)-5-(trifluoromethyl)phenyl)morpholine-2-carboxylic acid]: the IC50 at MAGL [1] (setting [3]) is below 100 nM; on MGLL, below 100 nM; at ABHD6, 100 to 1000 nM. Besides, the inhibition at 5 mg/kg at MAGL [2] is at most 25%.

In the case of `CC(=O)N1CC2(CCN(c3ccccc3CN3CCN(C(=O)OC(C(F)(F)F)C(F)(F)F)CC3)C2)C1` [Example 168, 1,1,1,3,3,3-Hexafluoropropan-2-yl 4-(2-(2-acetyl-2,6-diazaspiro[3.4]oetan-6-yl)benzyl)piperazine-1-carboxylate], the IC50 on MAGL [1] (setting [3]) was below 100 nM; at MGLL it was below 100 nM; on ABHD6 it was above 1000 nM. Moreover, on MAGL [2], the inhibition at 5 mg/kg is at least 75%.

In the case of `CS(=O)(=O)N1CCC2(CCN(c3cc(Cl)ccc3CN3CCN(C(=O)OC(C(F)(F)F)C(F)(F)F)CC3)CC2)C1` [Example 174, 1,1,1,3,3,3-Hexafluoropropan-4-(4-chloro-2-(2-(methylsulfonyl)-2,8-diazaspiro[4.5]decan-8-yl)benzyl)piperazine-1-carboxylate], the IC50 on MAGL [1] (setting [3]) is below 100 nM; on MGLL, below 100 nM; on ABHD6, above 1000 nM. Besides, on MAGL [2], the inhibition at 5 mg/kg was at least 75%.

Regarding `CC(=O)N1CC2(CCN(c3cc(C(F)(F)F)ccc3CN3CCN(C(=O)OC(C(F)(F)F)C(F)(F)F)CC3)C2)C1` [Example 180, 1,1,1,3,3,3-Hexafluoropropan-2-yl 4-(2-(2-acetyl-2,6-diazaspiro[3.4]octan-6-yl)-4-(trifluoromethyl)benzyl)piperazine-1-carboxylate], the figures for the IC50 on MAGL [1] (setting [3]), at MGLL and at ABHD6 were below 100 nM, below 100 nM and above 1000 nM, respectively. The inhibition at 5 mg/kg on MAGL [2] is at least 75%.

On to `CCN1CCC2(CCN(c3cc(C(F)(F)F)ccc3CN3CCN(C(=O)OC(C(F)(F)F)C(F)(F)F)CC3)CC2)C1` [Example 183, 1,1,1,3,3,3-Hexafluoropropan-2-yl 4-(2-(2-ethyl-2,8-diazaspiro[4.5]decan-8-yl)-4-(trifluoromethyl)benzyl)piperazine-1-carboxylate], for which the figures for the IC50 at MAGL [1] (setting [3]), at MGLL and at ABHD6 were below 100 nM, below 100 nM and above 1000 nM, respectively. The inhibition at 5 mg/kg at MAGL [2] was at most 25%.

Consider `CS(=O)(=O)N1CCC2(CCN(c3cc(C(F)(F)F)ccc3CN3CCN(C(=O)OC(C(F)(F)F)C(F)(F)F)CC3)CC2)C1` [Example 185, 1,1,1,3,3,3-Hexafluoropropan-2-yl 4-(2-(2-(methylsulfonyl)-2,8-diazaspiro[4.5]decan-8-yl)-4-- (trifluoromethyl)benzyl)piperazine-1-carboxylate], for which the IC50 on MAGL [1] (setting [3]) is below 100 nM; at MAGL [1] (setting [4]), below 100 nM; at MGLL, below 100 nM; at ABHD6, above 1000 nM. Also, the inhibition at 5 mg/kg on MAGL [2] is at least 75%.

In the case of `CS(=O)(=O)N1CC2(CCN(c3cc(C(F)(F)F)ccc3CN3CCN(C(=O)OC(C(F)(F)F)C(F)(F)F)CC3)C2)C1` [Example 186, 1,1,1,3,3,3-Hexafluoropropan-2-yl 4-(2-(2-(methylsulfonyl)-2,6-diazaspiro[3.4]octan-6-yl)-4-(trifluoromethyl)benzyl)piperazine-1-carboxylate], the IC50 on MAGL [1] (setting [3]) is below 100 nM; at MGLL, below 100 nM; at ABHD6 it was above 1000 nM. For the same compound, the inhibition at 5 mg/kg at MAGL [2] is at least 75%.

Regarding `CC(=O)N1CCC2(CCN(c3cc(C(F)(F)F)ccc3CN3CCN(C(=O)OC(C(F)(F)F)C(F)(F)F)CC3)CC2)C1` [Example 189, 1,1,1,3,3,3-Hexafluoropropan-2-yl 4-(2-(2-acetyl-2,8-diazaspiro[4.5]decan-8-yl)-4-(trifluoromethyl)benzyl)piperazine-1-carboxylate], the IC50 was below 100 nM on MAGL [1] (setting [3]), below 100 nM at MGLL and above 1000 nM at ABHD6. For the same compound, the inhibition at 5 mg/kg at MAGL [2] is at least 75%.

Consider `CC(=O)N1CC2(CCN(c3cc(Cl)ccc3CN3CCN(C(=O)OC(C(F)(F)F)C(F)(F)F)CC3)CC2)C1` [Example 213, 1,1,1,3,3,3-Hexafluoropropan-2-yl 4-(2-(2-acetyl-2,7-diazaspiro[3.5]nonan-7-yl)-4-chlorobenzyl) piperazine-1-carboxylate], for which, at MAGL [2], the inhibition at 5 mg/kg was at least 75%. The results for the IC50 on MGLL and at ABHD6 were below 100 nM and above 1000 nM, respectively.

For `CS(=O)(=O)N1CCC2(CCN(c3cc(CN4CCCC45CN(C(=O)OC(C(F)(F)F)C(F)(F)F)C5)cc(C(F)(F)F)c3)CC2)C1` [Example 233, 1,1,1,3,3,3-Hexafluoropropan-2-yl 5-(3-(2-(methylsulfonyl)-2,8-diazaspiro[4.5]decan-8-yl)-5-(trifluoromethyl)benzyl)-2,5-diazaspiro[3.4]octane-2-carboxylate], the inhibition at 5 mg/kg on MAGL [2] was at most 25%. Besides, the IC50 at MGLL was below 100 nM; at ABHD6, above 1000 nM.
